Laboratory results: US20250195513A1, “DEGRADATION OF IRAK4 BY CONJUGATION OF IRAK4 INHIBITORS WITH E3 LIGASE LIGAND AND METHODS OF USE” (BeiGene, Ltd., priority 2022, published 2025)

Legend:
IRAK4 [1] = target: T1, IRAK4 (Homo sapiens, UniProt Q9NWZ3); test: IRAK4 Degradation Assay (Karpas299, HTRF/TR-FRET); assay type: cell-based
T1 construct: endogenous in cells; host or cells: Karpas299
T1 sequence (Q9NWZ3 1-460): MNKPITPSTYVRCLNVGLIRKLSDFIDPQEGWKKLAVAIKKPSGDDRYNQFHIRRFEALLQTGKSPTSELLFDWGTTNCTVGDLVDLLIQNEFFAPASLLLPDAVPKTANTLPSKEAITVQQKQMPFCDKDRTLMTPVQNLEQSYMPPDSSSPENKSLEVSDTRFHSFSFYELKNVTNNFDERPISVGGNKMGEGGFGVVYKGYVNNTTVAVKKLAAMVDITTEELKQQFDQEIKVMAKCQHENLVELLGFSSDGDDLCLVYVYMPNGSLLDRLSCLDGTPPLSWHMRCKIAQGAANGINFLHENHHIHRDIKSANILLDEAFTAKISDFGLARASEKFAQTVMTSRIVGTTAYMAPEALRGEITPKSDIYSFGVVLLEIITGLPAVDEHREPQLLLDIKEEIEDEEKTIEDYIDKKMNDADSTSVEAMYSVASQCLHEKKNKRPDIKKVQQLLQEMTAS
In short: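 Karpas299 cells at 0.2 million per well were exposed to serially diluted compounds for 24 h or 5 h, then lysed. IRAK4 remaining in lysates was quantified by HTRF (665/620 nm) after overnight antibody incubation at room temperature. Percent degradation was fitted to a four-parameter curve to give IC50 (DC50).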

IRAK4 [2] = target: T1, IRAK4; test: IRAK4 Degradation Assay with Human Serum (Karpas299, HTRF/TR-FRET); assay type: cell-based; details: Karpas-299 in human serum, 24 hrs treatment
Protocol: IRAK4 degradation was measured using a TR-FRET-based method (Degorce, François, et al. Current chemical genomics. 2009, 3: 22). Karpas299 resuspended in Human serum AB (GEMINI, 100-512) were seeded into 96-well plates at the density of 0.2 million cells per well and then treated with a series dilution of compounds. After 24 hrs treatment, cells were pelleted via centrifugation and washed with PBS, add 40 μL lysis buffer (Cisbio) to each well after removal of the supernatant. Plates were then incubated at room temperature with shaking for 30 minutes. A total of 16 μL of cell lysates from each well of a 96-well plate was transferred to a 384-well white assay plate. IRAK4 level was quantitated using the HTRF kit as described by the manufacturer manual (Cisbio). FRET signals were measured using a PHERAstar FSX reader (BMG Labtech).
After treatment, add HTRF lysis buffer to each well; seal the plate and incubate 1 hour at room temperature on a plate shaker; Once the cells are lysed, 16 μL of cell lysate are transferred to a PE 384-well HTRF detection plate; 4 μL of pre-mixed HTRF antibodies are added to each well; Cover the plate with a plate sealer, spin 1000 rpm for 1 min, Incubate overnight at room temperature; Read on BMG PheraStar with HTRF protocol (337 nm-665 nm-620 nm).
The inhibition (degradation) percentage of the compound was calculated by the following equation: […]
The IC50 (DC50) value of a compound can be obtained by fitting the following equation
Wherein, X and Y are known values, and IC50, Hillslope, Top and Bottom are the parameters obtained by fitting with software. Y is the inhibition percentage (calculated from the equation), X is the concentration of the compound; IC50 is the concentration of the compound when the […] is reached. The smaller the IC50 value is, the stronger the inhibitory ability of the compound is. Vice versa, the higher the IC50 value is, the weaker the ability the inhibitory ability of the compound is; Hillslope represents the slope of the fitted curve, generally around 1 *; Bottom represents the minimum value of the curve obtained by data fitting, which is generally 0%±20%; Top represents the maximum value of the curve obtained by data fitting, which is generally 100%±20%. The experimental data were fitted by calculating and analyzing with Dotmatics data analysis software.

[3] = Karpas-299 cells, 24 h treatment, maximum percentage of degradation, read-out: IRAK4 in Karpas-299 (24 h) Dmax (%)
[4] = Karpas-299 cells, 24 h treatment, read-out: IRAK4 in Karpas-299 (24 h) DC50
[5] = Karpas-299 cells, 5 h treatment, maximum percentage of degradation, read-out: IRAK4 in Karpas-299 (5 h) Dmax (%)
[6] = Karpas-299 cells, 5 h treatment, read-out: IRAK4 in Karpas-299 (5 h) DC50

| Dmax (IRAK4 [1]; [3]) | DC50 (IRAK4 [1]; [4]) | SMILES | other results |
| --- | --- | --- | --- |
| 97% | 2.4 nM | C[C@H]1CN([C@H]2CC[C@H](n3cc4cc(NC(=O)c5ccc6cc(C#N)cnn56)c(C(C)(C)O)cc4n3)CC2)CCN1C(=O)C1CN(c2cc(F)c(N3CCC(=O)NC3=O)c(F)c2)C1 [Example 312, 3-cyano-N-(2-((1S,4r)-4-((S)-4-(1-(4-(2,4-dioxotetrahydropyrimidin-1(2H)-yl)-3,5-difluorophenyl)azetidine-3-carbonyl)-3-methylpiperazin-1-yl)cyclohexyl)-6-(2-hydroxypropan-2-yl)-2H-indazol-5-yl)pyrrolo[1,2-b]pyridazine-7-carboxamide] | DC50 (IRAK4 [2]; read-out: IRAK4 degradtion with human serum assay DC50): 34 nM; Dmax (IRAK4 [2]; read-out: IRAK4 degradtion with human serum assay Dmax (%)): 99% |
| 78% | 4.2 nM | CC(C)(O)c1cc2nn(C3CCN(C4CCN(C(=O)C5CN(c6cc(F)c([C@H]7CCC(=O)NC7=O)c(F)c6)C5)CC4)CC3)cc2cc1NC(=O)c1cccn(C2CC2)c1=O [Example 117, (R)-1-cyclopropyl-N-(2-(1′-(1-(4-(2,6-dioxopiperidin-3-yl)-3,5-difluorophenyl)azetidine-3-carbonyl)-[1,4′-bipiperidin]-4-yl)-6-(2-hydroxypropan-2-yl)-2H-indazol-5-yl)-2-oxo-1,2-dihydropyridine-3-carboxamide] | – |
| 95% | 3.8 nM | CC(C)(O)c1cc2nn(C3CCN(C4CCN(C(=O)[C@H]5CCN(c6ccc(N7CCC(=O)NC7=O)cc6)C5)CC4)CC3)cc2cc1NC(=O)c1cccc(C(F)(F)F)n1 [Example 163, (S)—N-(2-(1′-(1-(4-(2,4-dioxotetrahydropyrimidin-1(2H)-yl)phenyl)pyrrolidine-3-carbonyl)-[1,4′-bipiperidin]-4-yl)-6-(2-hydroxypropan-2-yl)-2H-indazol-5-yl)-6-(trifluoromethyl)picolinamide] | – |
| 97% | 2 nM | COc1cc2nn([C@H]3CC[C@H](N4CCN(C(=O)[C@@H]5CCN(c6ccc(N7CCC(=O)NC7=O)cc6)C5)CC4)CC3)cc2cc1NC(=O)c1cccc(C(F)(F)F)n1 [Example 164, N-(2-((1R,4r)-4-(4-((R)-1-(4-(2,4-dioxotetrahydropyrimidin-1(2H)-yl)phenyl)pyrrolidine-3-carbonyl)piperazin-1-yl)cyclohexyl)-6-methoxy-2H-indazol-5-yl)-6-(trifluoromethyl)picolinamide] | DC50 (IRAK4 [1]; Degradation (Karpas-299), comparison table, Linker Type B, read-out: Compound (Linker Type B) DC50): 2 nM; Dmax (IRAK4 [1]; Degradation (Karpas-299), comparison table, Linker Type B, read-out: Compound (Linker Type B) Dmax (%)): 97% |
| 4% | > 1000 nM | CC(C)(O)c1cc2nn([C@H]3CC[C@H](N4CCN(C(=O)/C=C/C56CC7CC(CC(C7)C5)C6)CC4)CC3)cc2cc1NC(=O)c1ccc2cc(C#N)cnn12 [Example 441, N-(2-((1r,4r)-4-(4-((E)-3-(adamantan-1-yl)acryloyl)piperazin-1-yl)cyclohexyl)-6-(2-hydroxypropan-2-yl)-2H-indazol-5-yl)-3-cyanopyrrolo[1,2-b]pyridazine-7-carboxamide] | – |
| 95% | 2.7 nM | COc1cc2nn([C@H]3CC[C@H](NC(=O)C4CCN(c5ccc6c(c5)C(=O)N(C5CCC(=O)NC5=O)C6=O)CC4)CC3)cc2cc1NC(=O)c1cccc(C(F)(F)F)n1 (stereo partly drawn) [Example 32, N-(2-((1r,4r)-4-(1-(2-(2,6-dioxopiperidin-3-yl)-1,3-dioxoisoindolin-5-yl)piperidine-4-carboxamido)cyclohexyl)-6-methoxy-2H-indazol-5-yl)-6-(trifluoromethyl)picolinamide] | Dmax (IRAK4 [1]; [5]): 91%; DC50 (IRAK4 [1]; [6]): 15 nM |
| 96% | 3.8 nM | CC(C)(O)c1cc2nn([C@H]3CC[C@H](N4CCN(C(=O)[C@@H]5CCN(c6cc(F)c(N7CCC(=O)NC7=O)c(F)c6)C5)CC4)CC3)cc2cc1NC(=O)c1cccc(C(F)(F)F)n1 [Example 115, N-(2-((1R,4r)-4-(4-((R)-1-(4-(2,4-dioxotetrahydropyrimidin-1(2H)-yl)-3,5-difluorophenyl)pyrrolidine-3-carbonyl)piperazin-1-yl)cyclohexyl)-6-(2-hydroxypropan-2-yl)-2H-indazol-5-yl)-6-(trifluoromethyl)picolinamide] | – |
| 95% | 2.5 nM | NC(=O)c1nn([C@H]2CC[C@H](N3CCN(C4CC(c5ccc(N[C@@H]6CCC(=O)NC6=O)cc5)C4)CC3)CC2)cc1NC(=O)c1coc(-c2ccnc(NCC(F)(F)F)c2)n1 (stereo partly drawn) [Example 9, N-(3-carbamoyl-1-((1r,4r)-4-(4-(3-(4-(((R)-2,6-dioxopiperidin-3-yl)amino)phenyl)cyclobutyl)piperazin-1-yl)cyclohexyl)-1H-pyrazol-4-yl)-2-(2-((2,2,2-trifluoroethyl)amino)pyridin-4-yl)oxazole-4-carboxamide] | – |
| 66% | 137 nM | COc1cc2nn([C@H]3CC[C@H](CN4CCN(C(=O)C5CCN(c6ccc(N7CCC(=O)NC7=O)cc6)CC5)CC4)CC3)cc2cc1NC(=O)c1cccc(C(F)(F)F)n1 [Example 7, N-(2-((1r,4r)-4-((4-(1-(4-(2,4-dioxotetrahydropyrimidin-1(2H)-yl)phenyl)piperidine-4-carbonyl)piperazin-1-yl)methyl)cyclohexyl)-6-methoxy-2H-indazol-5-yl)-6-(trifluoromethyl)picolinamide] | DC50 (IRAK4 [1]; Degradation (Karpas-299), comparison table, Linker Type A, read-out: Compound (Linker Type A) DC50): 137 nM; Dmax (IRAK4 [1]; Degradation (Karpas-299), comparison table, Linker Type A, read-out: Compound (Linker Type A) Dmax (%)): 66% |
| 100% | 7.2 nM | CC(C)(O)c1cc2nc(C3CCN(C4CCN(C(=O)[C@H]5CCN(c6ccc(N7CCC(=O)NC7=O)cc6)C5)CC4)CC3)cn2cc1NC(=O)c1cccc(C(F)(F)F)n1 [Example 128, (S)—N-(2-(1′-(1-(4-(2,4-dioxotetrahydropyrimidin-1(2H)-yl)phenyl)pyrrolidine-3-carbonyl)-[1,4′-bipiperidin]-4-yl)-7-(2-hydroxypropan-2-yl)imidazo[1,2-a]pyridin-6-yl)-6-(trifluoromethyl)picolinamide] | Dmax (IRAK4 [1]; [5]): 90%; DC50 (IRAK4 [1]; [6]): 41 nM |
| 98% | 6.3 nM | COc1cc2nn(C3CCN(C4CCN(C(=O)C5CN(c6cc(F)c([C@H]7CCC(=O)NC7=O)c(F)c6)C5)CC4)CC3)cc2cc1NC(=O)c1cccc(C(F)(F)F)n1 [Example 45, (R)—N-(2-(1′-(1-(4-(2,6-dioxopiperidin-3-yl)-3,5-difluorophenyl)azetidine-3-carbonyl)-[1,4′-bipiperidin]-4-yl)-6-methoxy-2H-indazol-5-yl)-6-(trifluoromethyl)picolinamide] | Dmax (IRAK4 [1]; [5]): 88%; DC50 (IRAK4 [1]; [6]): 16 nM |
| 98% | 2.8 nM | O=C1CCN(c2ccc(N3CC(C(=O)N4CCN([C@H]5CC[C@H](n6cc(NC(=O)c7coc(-c8ccnc(NCC9CC9)c8)n7)c(C(F)F)n6)CC5)CC4)C3)cc2)C(=O)N1 [Example 24, 2-(2-((cyclopropylmethyl)amino)pyridin-4-yl)-N-(3-(difluoromethyl)-1-((1r,4r)-4-(4-(1-(4-(2,4-dioxotetrahydropyrimidin-1(2H)-yl)phenyl)azetidine-3-carbonyl)piperazin-1-yl)cyclohexyl)-1H-pyrazol-4-yl)oxazole-4-carboxamide] | – |
